{"source": "patent US12653896B2", "about": "“Targeted dendrimer conjugates” (Starpharma Pty Ltd, priority 2019, dated 2026)", "format_in_all_cases": "cell-based, human", "key": {"[1]": {"test_system": "MDA-MB-231 cells", "test": "In vitro association study (flow cytometry, Cy5), MDA-MB-231", "conditions": "MDA-MB-231, 3.33 nM, in words", "experimental": "(§1) MDA-MB-231, MDA-MB-231/HER2 (HER2 knock in) (as described above), or SKOV-3 cells were seeded in a 24-well plate (1×10^5 cells per well) in 500 μL of appropriate growth media with the addition of 10% (v/v) fetal bovine serum (FBS) and incubated with compound 36 or 41 at 3.33 nM, […] atmosphere. After incubation, non-binding/non-associating particles were removed from adherent cells by gently washing with DPBS three times (300 μL/well). Cells were removed from plates by treatment with TrypLE™ Express Enzyme (1×), no phenol red (150 μL/well) for 5-10 min at room temperature. The plates were then placed on ice. Cellular binding and association of sample were then determined through flow cytometry by the acquisition of the signal from Cy5."}, "[2]": {"test_system": "MDA-MB-231/HER2 cells", "test": "In vitro association study (flow cytometry, Cy5), MDA-MB-231/HER2", "conditions": "MDA-MB-231/HER2, 3.33 nM", "experimental": "as §1"}, "[3]": {"test_system": "SKOV-3 cells", "test": "In vitro association study (flow cytometry, Cy5), SKOV-3", "conditions": "SKOV-3, 3.33 nM", "experimental": "MDA-MB-231, MDA-MB-231/HER2 (HER2 knock in) (as described above), or SKOV-3 cells were seeded in a 24-well plate (1×10^5 cells per well) in 500 μL of appropriate growth media with the addition of 10% (v/v) fetal bovine serum (FBS) and incubated with compound 36 or 41 at 3.33 nM, with incubation time varied from 1 to 24 h at 37° C. in a 5% CO2 humidified atmosphere. After incubation, non-binding/non-associating particles were removed from adherent cells by gently washing with DPBS three times (300 μL/well). Cells were removed from plates by treatment with TrypLE™ Express Enzyme (1×), no phenol red (150 μL/well) for 5-10 min at room temperature. The plates were then placed on ice. Cellular binding and association of sample were then determined through flow cytometry by the acquisition of the signal from Cy5."}, "[4]": {"test_system": "MDA-MB-231 cells", "test": "Confocal cellular uptake, MDA-MB-231", "conditions": "MDA-MB-231, 3.33 nM, 24 h", "experimental": "MDA-MB-231, MDA-MB-231/HER2 and SKOV-3 cells were plated at 1.0×10^4 cells per well into μ-slide 8 well chambered coverslip (ibidi) and allowed to adhere overnight at 37° C., 5% CO2. compounds 36 and 41 (3.33 nM) were then added and allowed to incubate for 1, 3, 6 and 24 hrs. The cells were washed and then fixed with 1% paraformaldehyde for 20 min at room temperature. The cell membrane was stained with Alexa Fluor 488-wheat germ agglutinin (AF488-WGA, 5 μg mL^−1) in DPBS at room temperature for 10 min. The cell nuclei were counterstained with 4′,6-diamidino-2-phenylindole (DAPI, 2 μg mL^−1) in DPBS at room temperature for 10 min. Fluorescence images and optical sections were collected using a confocal microscope (Leica SP8). Images were processed with Fiji (Image J 1.52n)."}}, "data": [{"substance": "(MeTzPh)PEG4CO-NHPEG24CO—[N(PN)2][Lys]8[((α-NH-Cy5)1-4(α-NH-Glu-Val-Cit-PAB-MMAE)4-7)(ε-NH-COPEG1100)8] [Compound 36]", "values": [{"measurement": "binding over 24 h", "setting": "[1]", "value": "minimal binding"}, {"measurement": "Mean fluorescence intensity", "setting": "[2]; 24 h, 37° C.", "value": "16.05±1.89"}, {"measurement": "binding over 24 h", "setting": "[2]; in words", "value": "minimal binding"}, {"measurement": "Mean fluorescence intensity", "setting": "[3]; 24 h, 37° C.", "value": "16.4±6.86"}, {"measurement": "binding over 24 h", "setting": "[3]; in words", "value": "minimal binding"}, {"measurement": "association with cells (confocal)", "setting": "[4]", "value": "little"}]}]}
